According to patent US20250221936A1, “ENGINEERED HEMICHANNELS, ENGINEERED VESICLES, AND USES THEREOF” (VIRGINIA TECH INTELLECTUAL PROPERTIES, INC., priority 2018, published 2025):
Entries after “also recorded” stand apart in the source; their conditions may differ.

Key:
[1] = test system: silicon wafer implants; settings: 24 hours; cited from earlier work
[2] = molecular target: T1, Cx43 CT (amino acids 255 to 382) (Rattus norvegicus, UniProt P08050); experiment: Surface plasmon resonance, Cx43 CT analyte; format: binding; settings: biotin-peptide immobilized on streptavidin chip; analyte 0.5 to 15 μM
T1 construct: Cx43-CT: amino acids 255 to 382; GST (N, cleaved yes); made in house; host or cells: E. coli BL21
T1 sequence (P08050 255-382): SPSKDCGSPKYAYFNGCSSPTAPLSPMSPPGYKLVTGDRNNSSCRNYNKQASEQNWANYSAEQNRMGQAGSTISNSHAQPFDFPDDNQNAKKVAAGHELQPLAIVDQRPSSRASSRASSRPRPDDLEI
Procedure: (§1) Efficacy of the interaction of each alpha CT1 variant with Cx43 CT or Cx43 CT-KK/QQ was tested using surface plasmon resonance (SPR) as described previously 20. In brief, SPR experiments were performed using a Biacore T200 (GE Healthcare). Equal amounts (response units/RU) of biotin-alpha CT1 variants were immobilized on each flow cell of a streptavidin-coated sensor chip (Biacore Inc) using immobilization buffer (in mM: 10 HEPES, 1 EDTA, 100 NaCl, 0.005% Tween-20) at pH 7.4. Measurements with wild-type (wt) Cx43 CT and mutant Cx43 CT-KK/QQ analytes were done in running buffer (in mM: 10 HEPES, 100 NaCl, pH 7.4) at a flow rate of 30 μl/min. Binding of analytes were verified at different concentrations, in random order (injection volume 120 μl). Interacting proteins were then unbound by injection of […] regeneration buffer (50 mM NaOH and 1 M NaCl) at a flow rate of 10 μl/min. Background levels were obtained from a reference cell containing a biotin-control peptide in which the reversed sequence of the last 9 amino acids of Cx43 was fused to biotin-antennapedia. The RU values obtained with biotin-control peptide were subtracted from the RU values obtained with the different biotin-alphaCT1 variants (wild-type or mutant) to generate the different response curves.

[3] = molecular target: T2, Cx43 CT-KK/QQ (Rattus norvegicus, UniProt P08050, K345Q/K346Q); experiment: Surface plasmon resonance, Cx43 CT-KK/QQ analyte; format: binding; settings: biotin-peptide immobilized on streptavidin chip
T2 construct: pGEX-6-P2 Cx43 CT amino acids 255-382; GST (N, cleaved yes); made in house; host or cells: E. coli BL21
T2 sequence (P08050 255-382 K345Q/K346Q): as the sequence (P08050 255-382) above, with K91Q, K92Q counted along it
Description: Peptides were synthesized and quality checked for fidelity and purity using High Performance Liquid Chromatography and mass spectrometry (LifeTein, Hillsborough, NJ). Biotinylated peptides were designed for surface plasmon resonance experiments. Glutathione-S-Transferase (GST) fusion protein constructs composed of the Cx43-CT (pGEX-6-P2 Cx43 CT amino acids 255-382), ZO-1 PDZ1, PDZ2 and PDZ3 were isolated and purified from isopropyl-b-D-thiogalactoside (IPTG)-induced BL21 bacteria using standard procedures, described in references 13, 14, 20. The pGEX6p2-Cx43 CT plasmid was obtained from Prof. Paul L. Sorgen (University of Nebraska Medical Center, USA). Cx43 CT mutant (Cx43 CT-KK/QQ; amino acids Lys345 Lys346 to Gln 345 Gln 346) was developed by site-directed mutagenesis of the pGEX6p2-Cx43 CT plasmid (Agilent technologies, QuikChange II Site-Directed Mutagenesis Kit). The mutation was verified by sequencing. For surface plasmon resonance experiments, the GST was removed using PreScission protease, yielding Cx43 CT protein (wild-type or mutant).
as §1

[4] = molecular target: T3, Cx43 CT (Rattus norvegicus, UniProt P08050); experiment: Protein thermal shift assay, Cx43 CT; format: binding; settings: 500 μg/ml protein, 25-100 μM peptide
T3 construct: CT: amino acids 255 to 382) alone; GST (N); made in house; host or cells: E. coli BL21
T3 sequence (P08050 255-382): as the sequence (P08050 255-382) above
Procedure: (§2) Thermal stability of recombinant GST-PDZ2 or Cx43 CT in the presence or absence of peptides was determined in a 96-well format. Each assay well was composed of 500 μg/ml protein, 25-100 μM of each peptide in PBS buffer, pH7.4. All assays were performed independently six times. Samples were generally prepared in 96-well plates at final volumes of 20 μL. The fluorescent dye SYPRO Orange (5000× concentrate in DMSO, ThermoFisher, S6650) was added to a final concentration of 8X. Reactions were run on QuantStudio 6 Flex Real-Time PCR system (Applied Biosystems, part of Life Technologies Corporation, CA) according to the manufacturer's recommendations using a melt protocol in 0.05-degree/see increments from 25° C. to 95° C. The Reporter Dye was “ROX” and quencher Dye and passive reference were selected as “None” for the melt curve according to manufacturer's instructions. The data were analyzed using Protein Thermal Shift™ Software v1.3 package (Applied Biosystems, CA).

[5] = molecular target: T4, ZO-1 PDZ2 (Homo sapiens, UniProt Q07157); experiment: Protein thermal shift assay, ZO-1 PDZ2; format: binding; settings: 500 μg/ml protein, 25-100 μM peptide
T4 construct: the second of the three PDZ (PDZ2) domains of ZO-1; made in house; host or cells: E. coli BL21
T4 sequence (Q07157 186-264 limits assumed): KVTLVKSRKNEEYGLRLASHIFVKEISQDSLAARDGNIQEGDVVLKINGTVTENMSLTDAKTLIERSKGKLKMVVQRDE
Procedure: as §2

[6] = molecular target: T5, PKC-ε phosphorylation of Cx43-CT substrate at Ser368 (Rattus norvegicus, UniProt P08050); experiment: PKC-ε Cx43 CT S368 phosphorylation assay; format: biochemical; settings: peptides at 20 μM
T5 construct: substrate (Cx43-CT: amino acids 255 to 382); GST (N); made in house; host or cells: E. coli BL21 (Cx43 CT); PKC-ε purchased (Life, 37717L)
T5 sequence (P08050 255-382): as the sequence (P08050 255-382) above
Procedure: PKC assay conditions were used to evaluate the PKC-ε phosphorylation of Cx43-CT substrate at Ser368 as we have described previously, with modifications 11. 400 ng/ml […] (Life, 37717L, Carlsbad, CA) was pre-diluted in enzyme dilution buffer (10 mM HEPES pH7.4, 0.01% CHAPS and 5 mM DTT) and assayed in 20 mM HEPES pH7.4, 10 mM/L MgCl2, 0.1 mM EGTA, 1× lipid mix (200 μg/ml phosphatidylserine (Avanti Polar Lipids 840032C),^20 μg/ml Diacylglycerol (Avanti Polar Lipids), 1 mM HEPES pH7.4, 0.03% CHAPS), 500 µM ATP (Sigma, A6419) and 14 μg/ml Cx43-CT substrate. Kinase assay buffer was supplemented with peptides to produce final concentrations of the reaction constituents, as indicated in figure legends. The mixture was incubated at 37° C. for 12 minutes and quenched by addition of LDS sample loading buffer (Bio Rad, 1610791). “XT sample buffer” is what was shown on the product label, whereas the component is similar as regular LDS buffer, containing about 5-10% lithium dodecyl sulphate. The reaction was Western blotted for pS368 Cx43 using the Phospho-Connexin43 (Ser368) antibody from Cell Signaling. Proteins were eluted off by stripping buffer (Millipore 2504) and re-probed for total Cx43 using the Sigma anti-rabbit antibody. Percent phosphorylation (% P) was quantified using Equation 1 and normalized with control group (PKC+, no peptide added).

[7] = test system: Neonatal cardiac fibroblasts (NHFs); experiment: Collagen synthesis by neonatal cardiac fibroblasts, Western blotting; format: cell-based, rat
Description: Isolation and treatment of Neonatal Cardiac Fibroblasts with Cx43 based peptides (peptides used included ACT1, JM1, JM2, Antennapedia [ANT], reverse ACT1 [Rev], poly Arginine [poly r]). Said peptides with and without internalization vectors can be loaded into the provided EVs and can elicit results similar to those observed for naked peptide as follows. Neonatal cardiac fibroblasts (NHFs) were isolated from 3-4 day old rat hearts by collagenase digestion (100 U/mL) and differential attachment as previously described (Borg et ah, 1984). All cells were maintained in Dulbecco's Modified Eagle Medium (DMEM) supplemented with 10% Fetal Bovine Serum and 100 U/mL penicillin G and 100 μg/mL streptomycin and used prior to passage four. For experiments, 40,000 NHFs were plated into the wells of a 24-well tissue culture plate and grown for 24-48 hours. On the day of treatment, media was removed from each well and replaced with fresh media containing 50 μg/mL L-ascorbic acid-2-phosphate; Sigma Chemical Co., St. Louis, MO). The appropriate volume of each peptide (resuspended in sterile, deionized 18 MQ resistivity water) was added to achieve the desired final concentration (30, 90, 180 µM peptide concentrations were tested). Culture plates were incubated overnight in a 37° C. incubator with 5% C02.
Protein Isolation and Examination of Collagen Synthesis by Western Blotting. Conditioned culture media was collected from each well and stored at −20° C. for analysis of soluble collagen. Cellular protein, including insoluble collagen and collagen still within the NHFs, were isolated by adding 100-200 μL, of cell lysis buffer (0.01 M Tris, pH 7.4, 0.001 M Sodium Orthovanadate, 1% sodium dodecylsulfate [SDS]) to each well and incubating 10 minutes at room temperature. Prior to addition, cell lysis buffer was warmed to facilitate solubilization of SDS and 100 u L of Halt protease inhibitor (Pierce Biotechnology, Rockford, IL) was added per 10 mL buffer to be used. After incubation, the well bottoms were scraped and liquid transferred to a microcentrifuge tube for storage at −20° C. Protein concentrations of cell lysates were determined using a Micro BCA assay (Pierce). SDS-PAGE samples were prepared by combining either 10 μg of cell lysate or 30 μL of conditioned media with XT loading buffer (BioRad, Hercules, CA), dithiothreitol and boiled for five minutes. Samples were loaded onto 3-8% Tris-Acetate Criterion X T gels (BioRad, Hercules, CA) and proteins separated at 140V. After electrophoresis, proteins were transferred onto […] nitrocellulose membranes (BioRad) overnight at room temperature (Transfer buffer: 25 mM Tris, 192 mM Glycine, 20% Methanol, 0.01% SDS). The presence of collagen was determined by probing the membranes with a rabbit anti-mouse collagen type I antibody (MD Biosciences) at 1:20,000 dilution in blocking buffer (5% milk in Tris-buffered saline) followed by a goat anti-rabbit IgG horseradish peroxidase conjugated antibody at 1:100,000 (Southern Biotech Associates) and detection with Pierce SuperSignal Femto West detection reagent (Pierce). To assess the activity of JM1 and JM2 peptides with respect to collagen production and their potential in mediating wound healing, cardiac fibroblasts were treated with these two peptides and their effectiveness compared to that for the previous described Cx43 peptide ACT1. NHFs were treated with various concentrations of JM1, JM2, ACT1, and ANT (Antennapedia) peptides, vehicle (water) or left untreated and the production of collagen both in the culture media and cell-associated collagen assessed by western blotting. […] To evaluate the impact of the poly-Arginine (poly-r)N-terminal sequence on JM1 and Jm2 activity, NHF cells were treated with a poly-r peptide.

[8] = test system: Cx43-HeLa; format: cell-based
Procedure: The first tests of JM1 and JM2 were performed and the experiments centered on the basic cell biology of the peptides.

[9] = test system: Cx43-Hela cells; experiment: Cx43 and ZO-1 immunofluorescent labeling; format: cell-based; settings: 10 μM for 2, 4, 24, or 48 hours
Procedure: Given that the 10UM concentration of peptide was not toxic to cells, the inventors treated Cx43-Hela cells with 10 μM JM1 or JM2 for 2, 4, 24, or 48 hours followed by fixation and immunofluorescent labeling of Cx43 and ZO-1. Said peptides can be loaded into the provided EVs and can elicit results similar to those observed for naked peptide as follows. […] However, the most striking effects were on ZO-1 organization. In control cells ZO-1 localized to cell borders, often at sites of small, finger-like projections between the cells. Cytoplasmic ZO-1 was also notable. In JM-treated cells a strong contrast in the ratio of cell border to cytoplasmic ZO-1 was found, with relative levels at cell borders being increased over controls. […] There was also a noticeable increase in the number of cells per area of field, supporting the earlier observation that JM2 treated cells appeared to proliferate and survive at an increased rate.

Nc1ncnc2c1ncn2[C@@H]1O[C@H](COP(=O)(O)OP(=O)(O)OP(=O)(O)O)[C@@H](O)[C@H]1O [ATP]
inflammatory infiltrate [1]: profound increase in inflammatory infiltrate; also recorded: more inflammatory infiltrate than the surgery alone

RQPKIWFPNRRKPWKK RPRPAALEI (RQPKIWFPNRRKPWKKRPRPAALEI) [M2 AALEI]
SPR binding to Cx43 CT [2]: abrogated peptide interaction with Cx43 CT; also recorded: limited ability to bind Cx43 CT
SPR binding to Cx43 CT-KK/QQ [3]: unable mediate interactions
Cx43 CT melt temperature (Tm) [4]: no propensity to alter Cx43 CT thermal stability
PDZ2 melt temperature (Tm) [5]: did not alter the melt temperature of PDZ2
Cx43 S368 phosphorylation [6]: neither M1 AALAI (SEQ ID NO: 134), M2 AALEI (SEQ ID NO: 135) nor M3 DDLAI (SEQ ID NO: 136) increased Cx43 S368 phosphorylation

VFFKGVKDRV [JM1]
mature type I collagen in conditioned media ([7]; 180 μM): no mature type I collagen was detected
mature type I collagen in conditioned media ([7]; 30, 90, 180 µM): dose-dependent decrease in the production of mature, type I collagen
collagen produced versus poly-r peptide ([7]; about 90 μM): less than half of that produced by cells treated with the poly-r peptide
mature type I collagen in cell lysate ([7]; versus ACT1 peptide): more profound reduction in the amount of mature type I collagen
toxicity (cell death) [8]: no obvious toxicity
Cx43 and ZO-1 localization [9]: greater cytoplasmic Cx43 was observed; also recorded: ZO-1 cell border labeling was enhanced
tissue reaction zone [1]: substantially narrower tissue reaction zone

apyrase
inflammatory infiltrate [1]: significantly reduced the inflammatory infiltrate
